From PubChem BioAssay AID248 (DTP/NCI, 2004)
Several values for one entry are separate records, joined by “and”; a condition that tells them apart may be missing. Equal entries are not always repeated. Toxic doses and inconclusive results are not listed. Rule as the data show it: active = T/C of 150% or more; inactive = T/C below 125%.

System: L1210 leukemia ip in BDF1 mice, survival T/C
Assay: NCI In Vivo Anticancer Drug Screen. Data for tumor model L1210 Leukemia (intraperitoneal) in B6D2F1 (BDF1) mice
Conditions: endpoint: mean survival time, higher = longer survival
Outline: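 In this screen, tumor-bearing mice given compound are compared to those given vehicle, and their survival values are reported as a treated-to-control quotient.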

[1] = dose: 100.0 mg/kg/injection, schedule: Q04DX003 (ip), vehicle: saline with Tween-80
[2] = dose: 200.0 mg/kg/injection, schedule: Q04DX003 (ip), vehicle: saline with Tween-80
[3] = dose: 400.0 mg/kg/injection, schedule: Q04DX003 (ip), vehicle: saline with Tween-80
[4] = dose: 100.0 mg/kg/injection, schedule: Q01DX009 (ip), vehicle: Klucel (hydroxypropylcellulose) (HPC)
[5] = dose: 200.0 mg/kg/injection, schedule: Q01DX009 (ip), vehicle: Klucel (hydroxypropylcellulose) (HPC)
[6] = dose: 400.0 mg/kg/injection, schedule: Q01DX009 (ip), vehicle: Klucel (hydroxypropylcellulose) (HPC)
[7] = dose: 100.0 mg/kg/injection, schedule: Q04DX002 (ip), vehicle: saline with Tween-80
[8] = dose: 200.0 mg/kg/injection, schedule: Q04DX002 (ip), vehicle: saline with Tween-80
[9] = dose: 400.0 mg/kg/injection, schedule: Q04DX002 (ip), vehicle: saline with Tween-80
[10] = dose: 100.0 mg/kg/injection, schedule: Q04DX003 (ip), vehicle: saline
[11] = dose: 200.0 mg/kg/injection, schedule: Q04DX003 (ip), vehicle: saline
[12] = dose: 50.0 mg/kg/injection, schedule: Q04DX003 (ip), vehicle: saline with Tween-80
[13] = dose: 100.0 mg/kg/injection, schedule: Q01DX001 (ip), vehicle: saline
[14] = dose: 200.0 mg/kg/injection, schedule: Q01DX001 (ip), vehicle: saline
[15] = dose: 400.0 mg/kg/injection, schedule: Q01DX001 (ip), vehicle: saline
[16] = dose: 100.0 mg/kg/injection, schedule: Q01DX009 (ip), vehicle: saline with Tween-80
[17] = dose: 200.0 mg/kg/injection, schedule: Q01DX009 (ip), vehicle: saline with Tween-80
[18] = dose: 400.0 mg/kg/injection, schedule: Q01DX009 (ip), vehicle: saline with Tween-80

Measured: T/C

Cc1ccc(-n2c(=S)[nH]c3ccccc3c2=O)cc1F
inactive: [1] 94 % of control | [2] 93 % of control | [3] 89 % of control

Cc1ccc(S(=O)(=O)Nc2ccc([N+](=O)[O-])cc2O)cc1
inactive: [4] 97 % of control | [5] 101 % of control | [6] 94 % of control

CCCCS/C=C1\CCC2(C)CCCCC2C1=O (stereo unspecified)
inactive: [7] 100 % of control | [8] 100 % of control | [9] 120 % of control

C/C=C/c1ccc(OCC)c(OC)c1
inactive: [10] 97 % of control | [11] 98 % of control

COc1ccccc1C(=O)N/N=C/c1ccc(O)cc1O
inactive: [4] 102 % of control | [5] 96 % of control | [6] 100 % of control

CCOC(=O)C(C)(O)C1(Cl)CCC(C(C)(C)C)CC1 (stereo unspecified)
inactive: dose: 100.0 mg/kg/injection, schedule: Q04DX002 (ip), vehicle: saline 103 % of control | dose: 200.0 mg/kg/injection, schedule: Q04DX002 (ip), vehicle: saline 103 % of control | dose: 400.0 mg/kg/injection, schedule: Q04DX002 (ip), vehicle: saline 100 % of control

COc1ccc(C(=O)CCN2CCC(O)(c3ccccc3)CC2)cc1
inactive: dose: 12.5 mg/kg/injection, schedule: Q04DX003 (ip), vehicle: saline with Tween-80 100 % of control | dose: 25.0 mg/kg/injection, schedule: Q04DX003 (ip), vehicle: saline with Tween-80 92 % of control | [12] 96 % of control

O=P(O)(O)c1cccc(Oc2ccccc2)c1
inactive: dose: 75.0 mg/kg/injection, schedule: Q01DX001 (ip), vehicle: saline 100 % of control | dose: 150.0 mg/kg/injection, schedule: Q01DX001 (ip), vehicle: saline 100 % of control

CNC(=O)n1ncnc1N
inactive: [10] 94 % of control | [11] 96 % of control | dose: 400.0 mg/kg/injection, schedule: Q04DX003 (ip), vehicle: saline 97 % of control

Cc1ccc(C(C)C)c(OCCN2CC=CC2)c1
inactive: [13] 98 % of control | [14] 94 % of control

c1ccc2sc(SN3CCCCC3)nc2c1
inactive: dose: 100.0 mg/kg/injection, schedule: Q01DX001 (ip), vehicle: Klucel (hydroxypropylcellulose) (HPC) 103 % of control | dose: 200.0 mg/kg/injection, schedule: Q01DX001 (ip), vehicle: Klucel (hydroxypropylcellulose) (HPC) 97 % of control | dose: 400.0 mg/kg/injection, schedule: Q01DX001 (ip), vehicle: Klucel (hydroxypropylcellulose) (HPC) 94 % of control

COc1ccc(-c2sc(/N=C/c3ccc(N(C)CCC#N)cc3)c(C#N)c2C)cc1OC
inactive: dose: 100.0 mg/kg/injection, schedule: Q01DX001 (ip), vehicle: saline with Tween-80 100 % of control | [7] 103 % of control and 118 % of control | [1] 102 % of control and 91 % of control | dose: 200.0 mg/kg/injection, schedule: Q01DX001 (ip), vehicle: saline with Tween-80 91 % of control | [8] 93 % of control and 96 % of control | [2] 95 % of control and 98 % of control | dose: 400.0 mg/kg/injection, schedule: Q01DX001 (ip), vehicle: saline with Tween-80 100 % of control | [9] 104 % of control and 106 % of control | [3] 102 % of control and 91 % of control

CCCCC/C(C)=N\Nc1ccccn1
inactive: dose: 12.5 mg/kg/injection, schedule: Q01DX009 (ip), vehicle: Klucel (hydroxypropylcellulose) (HPC) 98 % of control | dose: 25.0 mg/kg/injection, schedule: Q01DX009 (ip), vehicle: Klucel (hydroxypropylcellulose) (HPC) 100 % of control | dose: 25.0 mg/kg/injection, schedule: Q01DX009 (ip), vehicle: acetone 97 % of control | dose: 50.0 mg/kg/injection, schedule: Q01DX001 (ip), vehicle: acetone 100 % of control | dose: 50.0 mg/kg/injection, schedule: Q01DX009 (ip), vehicle: Klucel (hydroxypropylcellulose) (HPC) 104 % of control | dose: 50.0 mg/kg/injection, schedule: Q01DX009 (ip), vehicle: acetone 100 % of control | dose: 50.0 mg/kg/injection, schedule: Q04DX003 (ip), vehicle: Klucel (hydroxypropylcellulose) (HPC) 95 % of control | [12] 100 % of control | dose: 100.0 mg/kg/injection, schedule: Q01DX001 (ip), vehicle: acetone 102 % of control | dose: 100.0 mg/kg/injection, schedule: Q01DX009 (ip), vehicle: acetone 88 % of control | dose: 100.0 mg/kg/injection, schedule: Q04DX003 (ip), vehicle: Klucel (hydroxypropylcellulose) (HPC) 101 % of control | [1] 100 % of control | dose: 200.0 mg/kg/injection, schedule: Q01DX001 (ip), vehicle: acetone 94 % of control | dose: 200.0 mg/kg/injection, schedule: Q04DX003 (ip), vehicle: Klucel (hydroxypropylcellulose) (HPC) 106 % of control

CC(=O)Oc1cc(C)cc(OC(C)=O)n1
inactive: dose: 50.0 mg/kg/injection, schedule: Q01DX001 (ip), vehicle: saline 104 % of control | [13] 98 % of control | [14] 98 % of control | [15] 96 % of control

Clc1nc2nc3n(c2nc1Cl)CCC3(Br)Br
inactive: dose: 12.5 mg/kg/injection, schedule: Q01DX009 (ip), vehicle: other 112 % of control | dose: 25.0 mg/kg/injection, schedule: Q01DX009 (ip), vehicle: other 114 % of control | dose: 50.0 mg/kg/injection, schedule: Q01DX009 (ip), vehicle: other 112 % of control | dose: 100.0 mg/kg/injection, schedule: Q01DX009 (ip), vehicle: other 110 % of control

NC(=O)NCN1C(=O)c2ccccc2C1=O
inactive: dose: 100.0 mg/kg/injection, schedule: Q04DX002 (ip), vehicle: Klucel (hydroxypropylcellulose) (HPC) 100 % of control | dose: 200.0 mg/kg/injection, schedule: Q04DX002 (ip), vehicle: Klucel (hydroxypropylcellulose) (HPC) 94 % of control | dose: 400.0 mg/kg/injection, schedule: Q04DX002 (ip), vehicle: Klucel (hydroxypropylcellulose) (HPC) 90 % of control

CCCCOB1OC(C)CC(C)(C)O1 (stereo unspecified)
inactive: [13] 106 % of control | [14] 97 % of control | [15] 99 % of control

CN(C)CCOc1ccc(Cl)cc1Cc1ccccc1
inactive: dose: 3.12 mg/kg/injection, schedule: Q01DX009 (ip), vehicle: saline 95 % of control | dose: 6.25 mg/kg/injection, schedule: Q01DX009 (ip), vehicle: saline 95 % of control | dose: 12.5 mg/kg/injection, schedule: Q01DX009 (ip), vehicle: saline 118 % of control | dose: 25.0 mg/kg/injection, schedule: Q01DX009 (ip), vehicle: saline 105 % of control | dose: 25.0 mg/kg/injection, schedule: Q04DX003 (ip), vehicle: saline 100 % of control | dose: 50.0 mg/kg/injection, schedule: Q01DX009 (ip), vehicle: saline 112 % of control | dose: 50.0 mg/kg/injection, schedule: Q04DX003 (ip), vehicle: saline 94 % of control

Cc1ccc(Cl)cc1NC(=O)N(C)Cc1ccccc1
inactive: [16] 95 % of control and 104 % of control | [7] 94 % of control and 120 % of control | [1] 100 % of control | [17] 97 % of control and 104 % of control | [8] 98 % of control and 105 % of control | [2] 105 % of control | [18] 97 % of control and 108 % of control | [9] 98 % of control and 86 % of control | [3] 108 % of control

CC(=O)OC1C=CS(=O)(=O)C1 (stereo unspecified)
inactive: [16] 94 % of control | [17] 103 % of control | [18] 96 % of control
